# Measured values from patent US8741889B2, “Method of treating non-small cell lung cancer and colon cancer with gamma-secretase inhibitor” (Hoffmann-La Roche Inc, priority 2008, dated 2014).
# Test system: MiaPaca2 human pancreatic carcinoma xenografts
# Assay: Antitumor efficacy in MiaPaca2 pancreatic xenografts in nude mice
# Format: in vivo
# Settings: day 37
# Method: Female (athymic nu/nu) nude mice were obtained from Charles River Laboratories (Wilmington, Mass.), while female SCID-beige mice were purchased from Taconic (Germantown, N.Y.). Mice were used when they were approximately 8-12 weeks old (nudes) or 8-10 weeks old (SCID-beige), and weighed approximately 23-25 grams. The health of all animals was determined daily by gross observation of experimental animals and by the analyses of blood samples of sentinel animals that were housed on the shared shelf racks. All animals were allowed to acclimate and recover from any shipping related stress for a minimum of 72 hours prior to experimental use. Autoclaved water and irradiated food [5058-ms Pico chow (mouse) Purina, Richmond, Ind.] were provided ad libitum, and the animals were maintained on a 12 hour light and dark cycle. Cages, bedding and water bottles were autoclaved before use and were changed weekly. MiaPaca2, AsPC1 and BxPC3 human pancreatic carcinoma cells were purchased from ATCC (Manassas, Va.). BxPC3 and AsPC1 cells were grown in RPMI medium and MiaPaca2 cells were grown in Dulbecco's Modified Essential Medium (DMEM). All culture media were supplemented with 10% (v/v) FBS and 1% (v/v) […]. […] SCID-biege mice were implanted se with 5×10^6 BxPC3 cells in a 1:1 mixture of matrigel:PBS in a volume of 0.2 ml per mouse in the right hind flank on May 22, 2007. […] Formulated compound and vehicle were stored at 4° C. and prepared weekly. The suspension was mixed vigorously prior to administration. Gemcitabine (Gemzar®, Eli Lilly and Company, Indianapolis, Ind., USA) was reconstituted with sterile saline to yield a stock solution of 38 mg/ml for the entire 3-4 week study. […] Nude mice implanted with MiaPaca2 or AsPC1 xenografts were randomized on day 17 and day 9 post cell implant, respectively. SCID-beige mice bearing BxPC3 xenografts were randomized 8 days post implant. […] Treatment for the MiaPaca2 study began on Feb. […] For the MiaPaca2 and AsPC1 studies, qd Compound (1) suspension or q3d gemcitabine treatment ended on day 37 post tumor cell implant, whereas for the BxPC3 study, qd Compound (1) suspension or q3d gemcitabine treatment ended on day 35 post tumor cell implant. For intermittent dosing of Compound (1) suspension in the MiaPaca2 study using the 7+/7−/7+ schedule, treatment ended on day 23, was reinitiated on day 31, and ended day 37. In the combination groups Compound (1) suspension was given sequentially with gemcitabine using the 7+/7−/7+ schedule so that Compound (1) was dosed daily only during the first and third weeks, whereas gemcitabine was dosed q3d during the second week only. Efficacy data was graphically represented as the mean tumor volume+standard error of the mean (SEM). Tumor volumes of treated groups were presented as percentages of tumor volumes of the control groups (% T/C), using the formula: 100×((T−T0)/(C−C0)), where T represented mean tumor volume of a treated group on a specific day during the experiment, T0 represented mean tumor volume of the same […] on the first day of treatment; C represented mean tumor volume of a control group on the specific day during the experiment, and C0 represented mean tumor volume of the same treated group on the first day of treatment. Tumor volume (in cubic millimeters) was calculated using the ellipsoid formula: (D×(d2))/2 where ‘D’ represents the large diameter of the tumor, and ‘d’ represents the small diameter. In some cases, tumor regression and/or percent change in tumor volume was calculated using the formula: ((T−T0)/T0)×100 where ‘T’ represents mean tumor volume of the treated group at a particular day, and ‘T0’ represents mean tumor volume of the same treated group at initiation of treatment. Statistical analysis was determined by the rank sum test and One Way Anova and a post-hoc Bonferroni t-test (SigmaStat, version 2.0, Jandel Scientific, San Francisco, Calif.). […]
smiles,measurement,setting,value
"CC(C)(C(=O)NCC(F)(F)C(F)(F)F)C(=O)N[C@@H]1C(=O)Nc2ccccc2-c2ccccc21 [Compound (1), 2,2-Dimethyl-N—((S)-6-oxo-6,7-dihydro-5H-dibenzo[b,d]azepin-7-yl)-N′-(2,2,3,3,3-pentafluoro-propyl)-malonamide]",% TGI,1 mg/kg po qd × 21 days,39%
same,% TGI,3 mg/kg po qd × 21 days,42%
same,% TGI,10 mg/kg po qd × 21 days,53%
same,% TGI,"10 mg/kg po, 7+/7−/7+",51%
same,% TGI,"30 mg/kg po, 7+/7−/7+",58%
same,% TGI,"60 mg/kg po, 7+/7−/7+",48%
